Starred links: 1 amine or outer side, 2 acyl side, 3 side chain; linkers in the order of their positions; H or OH if unused. Positions of bridges follow the written chain, without caps; N, C: chain ends. Non-standard residues stand in square brackets, D forms with d. Residues, ends and D or L forms follow the SMILES beside them. *: point of attachment. NMePhe(4-CF3) = CN[C@@H](Cc1ccc(C(F)(F)F)cc1)C(=O)O; NMePhe(4-Cl) = CN[C@@H](Cc1ccc(Cl)cc1)C(=O)O; NMedβ3hAla = C[C@H](CC(=O)[*:2])N(C)[*:1]; Leu(4,5-dehydro) = C=C(C)C[C@H](N)C(=O)O; NMeAla(cPent) = CN[C@@H](CC1CCCC1)C(=O)O; Phe(3-I) = N[C@@H](Cc1cccc(I)c1)C(=O)O; X10 = CC(C)=CC[C@H](N[*:1])C(=O)[*:2]; NMeY = CN[C@@H](Cc1ccc(O)cc1)C(=O)O; NMeCha = CN[C@@H](CC1CCCCC1)C(=O)O; NMeAoc(2) = CCCCCC[C@H](NC)C(=O)O; hPhe = N[C@@H](CCc1ccccc1)C(=O)O; NMeD = CN[C@@H](CC(=O)O)C(=O)O; AllylGly = C=CC[C@H](N)C(=O)O; NMeL = CN[C@@H](CC(C)C)C(=O)O; Cba = N[C@@H](CC1CCC1)C(=O)O; NMeA = CN[C@@H](C)C(=O)O; NMeAib = CNC(C)(C)C(=O)O; Nle = CCCC[C@H](N)C(=O)O; Piperidide = C1CCN(*)CC1; Pra = C#CC[C@H](N)C(=O)O; Pyrrolidide = C1CCN(*)C1; Aze = O=C(O)[C@@H]1CCN1; Sar = CNCC(=O)O

The target of this assay is T1, Kras and SOS1 (biotin-tagged human Kras loaded with GDP, His-tagged human SOS1) (Homo sapiens, UniProt P01116, G12D).
T1 construct: made in house; host or cells: E. coli (stated for Kras only)
T1 sequence (P01116 1-188 isoform P01116-2 G12D): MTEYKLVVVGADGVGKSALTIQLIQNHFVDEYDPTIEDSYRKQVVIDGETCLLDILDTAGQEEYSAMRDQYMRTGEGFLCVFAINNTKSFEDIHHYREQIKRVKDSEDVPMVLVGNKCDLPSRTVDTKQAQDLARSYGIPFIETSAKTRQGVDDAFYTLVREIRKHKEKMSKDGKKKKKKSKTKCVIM
Kind of assay: Protein-protein interaction inhibition between Kras and SOS1 (KrasGl2D-SOS PPI) using AlphaScreen. Format: binding. To be noted: AlphaScreen; biotin-tagged human Kras loaded with GDP, His-tagged human SOS1; read-out: KRAS G12D-SOS PPI IC50. The method in brief: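 AlphaScreen format: Ni donor beads capture His-SOS1, streptavidin acceptor beads capture biotinylated Kras (E. coli-expressed, GDP-loaded post-purification). Excite 680 nm, read 520-620 nm.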
A general note: Bead proximity is the source of the signal in Alpha formats.
One may read the IC50 as the concentration needed to halve the response being measured. Turning to `CCCC[C@@H]1NC(=O)[C@H](Cc2cccc(I)c2)NC(=O)CN(C)C(=O)[C@H](CC2CCCCC2)N(C)C(=O)CN(C)C(=O)CN(C)C(=O)[C@H]([C@@H](C)CC)NC(=O)[C@H](CC(C)C)N(C)C(=O)C[C@@H](C(=O)N2CCCCC2)N(C)C(=O)[C@H](CC(C)C)NC(=O)C(C)(C)N(C)C1=O` [Compound 1416] ([NMeL]I[Sar][Sar][NMeCha][Sar][Phe(3-I)][Nle][NMeAib]L[NMeD]-Piperidide; lactam N-11), the half-inhibitory concentration (IC50) worked out at 0.097 µM.
Take `CCCCCC[C@H]1C(=O)N[C@@H]([C@@H](C)CC)C(=O)N(C)CC(=O)N2CC[C@H]2C(=O)N(C)[C@@H](Cc2ccc(OC)cc2)C(=O)N(C)CC(=O)N[C@@H](Cc2cccc(I)c2)C(=O)N[C@@H](CCCC)C(=O)N(C)C(C)(C)C(=O)N[C@@H](CC(C)C)C(=O)N(C)[C@H](C(=O)N2CCCCC2)CC(=O)N1C` [Compound 1417] ([NMeAoc(2)]I[Sar][Aze][NMeY](Me)[Sar][Phe(3-I)][Nle][NMeAib]L[NMeD]-Piperidide; lactam N-11): the 50% inhibitory concentration (IC50) was 0.029 µM.
To `CC[C@H](C)[C@@H]1NC(=O)[C@H](CC(C)C)N(C)C(=O)C[C@@H](C(=O)N2CCCCC2)N(C)C(=O)[C@H](CC(C)C)NC(=O)C(C)(C)N(C)C(=O)[C@H](CC=C(C)C)NC(=O)[C@H](Cc2cccc(I)c2)NC(=O)CN(C)C(=O)[C@H](Cc2ccc(Cl)cc2)N(C)C(=O)[C@@H]2CCN2C(=O)[C@H](C)N(C)C1=O` [Compound 1419] ([NMeL]I[NMeA][Aze][NMePhe(4-Cl)][Sar][Phe(3-I)][X10][NMeAib]L[NMeD]-Piperidide; lactam N-11) belongs 0.046 µM; to `CCCC[C@@H]1NC(=O)[C@H](Cc2cccc(I)c2)NC(=O)CN(C)C(=O)[C@H](CC2CCCCC2)N(C)C(=O)[C@@H]2CCN2C(=O)CN(C)C(=O)[C@H]([C@@H](C)CC)NC(=O)[C@H](CC(C)C)N(C)C(=O)C[C@@H](C(=O)N2CCCCC2)N(C)C(=O)[C@H](CC(C)C)NC(=O)C(C)(C)N(C)C1=O` [Compound 1420] ([NMeL]I[Sar][Aze][NMeCha][Sar][Phe(3-I)][Nle][NMeAib]L[NMeD]-Piperidide; lactam N-11), 0.089 µM.
For the compound `C=C(C)C[C@@H]1NC(=O)[C@H](Cc2cccc(I)c2)NC(=O)CN(C)C(=O)[C@H](Cc2ccc(Cl)cc2)N(C)C(=O)CN(C)C(=O)CN(C)C(=O)[C@H]([C@@H](C)CC)NC(=O)[C@H](CC(C)C)N(C)C(=O)C[C@@H](C(=O)N2CCCCC2)N(C)C(=O)[C@H](CC(C)C)NC(=O)C(C)(C)N(C)C1=O` [Compound 1421] ([NMeL]I[Sar][Sar][NMePhe(4-Cl)][Sar][Phe(3-I)][Leu(4,5-dehydro)][NMeAib]L[NMeD]-Piperidide; lactam N-11), the 50% inhibitory concentration (IC50) is 0.032 µM.
To `CCCC[C@@H]1NC(=O)[C@H](Cc2cccc(I)c2)NC(=O)CN(C)C(=O)[C@H](Cc2ccc(Cl)cc2)N(C)C(=O)CN(C)C(=O)CN(C)C(=O)[C@H]([C@@H](C)CC)NC(=O)[C@H](CC(C)C)N(C)C(=O)C[C@@H](C(=O)N2CCCCC2)N(C)C(=O)[C@H](CC2CCC2)NC(=O)C(C)(C)N(C)C1=O` [Compound 1422] ([NMeL]I[Sar][Sar][NMePhe(4-Cl)][Sar][Phe(3-I)][Nle][NMeAib][Cba][NMeD]-Piperidide; lactam N-11) belongs 0.016 µM.
To `CCCC[C@@H]1NC(=O)[C@H](Cc2cccc(I)c2)NC(=O)CN(C)C(=O)[C@H](CC2CCCC2)N(C)C(=O)CN(C)C(=O)CN(C)C(=O)[C@H]([C@@H](C)CC)NC(=O)[C@H](CC(C)C)N(C)C(=O)C[C@@H](C(=O)N2CCCCC2)N(C)C(=O)[C@H](CC(C)C)NC(=O)C(C)(C)N(C)C1=O` [Compound 1423] ([NMeL]I[Sar][Sar][NMeAla(cPent)][Sar][Phe(3-I)][Nle][NMeAib]L[NMeD]-Piperidide; lactam N-11) belongs 0.19 µM; to `C#CC[C@@H]1NC(=O)[C@H](Cc2cccc(I)c2)NC(=O)CN(C)C(=O)[C@H](Cc2ccc(C(F)(F)F)cc2)N(C)C(=O)[C@@H]2CCN2C(=O)CN(C)C(=O)[C@H]([C@@H](C)CC)NC(=O)[C@H](CC(C)C)N(C)C(=O)C[C@@H](C(=O)N2CCCCC2)N(C)C(=O)[C@H](CC(C)C)NC(=O)C(C)(C)N(C)C1=O` [Compound 1425] ([NMeL]I[Sar][Aze][NMePhe(4-CF3)][Sar][Phe(3-I)][Pra][NMeAib]L[NMeD]-Piperidide; lactam N-11), 0.019 µM; to `C#CC[C@@H]1NC(=O)[C@H](Cc2cccc(I)c2)NC(=O)CN(C)C(=O)[C@H](Cc2ccc(Cl)cc2)N(C)C(=O)CN(C)C(=O)CN(C)C(=O)[C@H]([C@@H](C)CC)NC(=O)[C@H](CC(C)C)N(C)C(=O)C[C@@H](C(=O)N2CCCCC2)N(C)C(=O)[C@H](CC(C)C)NC(=O)C(C)(C)N(C)C1=O` [Compound 1426] ([NMeL]I[Sar][Sar][NMePhe(4-Cl)][Sar][Phe(3-I)][Pra][NMeAib]L[NMeD]-Piperidide; lactam N-11), 0.048 µM.
With `C#CC[C@@H]1NC(=O)[C@H](Cc2cccc(I)c2)NC(=O)CN(C)C(=O)[C@H](Cc2ccc(C(F)(F)F)cc2)N(C)C(=O)[C@@H]2CCN2C(=O)CN(C)C(=O)[C@H]([C@@H](C)CC)NC(=O)[C@H](CC(C)C)N(C)C(=O)C[C@@H](C)N(C)C(=O)[C@H](CC(C)C)NC(=O)C(C)(C)N(C)C1=O` [Compound 1427] (cyclo([Aze][NMePhe(4-CF3)][Sar][Phe(3-I)][Pra][NMeAib]L[NMedβ3hAla][NMeL]I[Sar])) the figure was 0.25 µM; with `C#CC[C@@H]1NC(=O)[C@H](Cc2cccc(I)c2)NC(=O)CN(C)C(=O)[C@H](Cc2ccc(Cl)cc2)N(C)C(=O)[C@@H]2CCN2C(=O)[C@H](C)N(C)C(=O)[C@H]([C@@H](C)CC)NC(=O)[C@H](CC(C)C)N(C)C(=O)C[C@@H](C(=O)N2CCCCC2)N(C)C(=O)[C@H](CC(C)C)NC(=O)C(C)(C)N(C)C1=O` [Compound 1428] ([NMeL]I[NMeA][Aze][NMePhe(4-Cl)][Sar][Phe(3-I)][Pra][NMeAib]L[NMeD]-Piperidide; lactam N-11), 0.042 µM; with `C=C(C)C[C@@H]1NC(=O)[C@H](Cc2cccc(I)c2)NC(=O)CN(C)C(=O)[C@H](Cc2ccc(Cl)cc2)N(C)C(=O)[C@@H]2CCN2C(=O)[C@H](C)N(C)C(=O)[C@H]([C@@H](C)CC)NC(=O)[C@H](CC(C)C)N(C)C(=O)C[C@@H](C(=O)N2CCCCC2)N(C)C(=O)[C@H](CC(C)C)NC(=O)C(C)(C)N(C)C1=O` [Compound 1429] ([NMeL]I[NMeA][Aze][NMePhe(4-Cl)][Sar][Phe(3-I)][Leu(4,5-dehydro)][NMeAib]L[NMeD]-Piperidide; lactam N-11), 0.044 µM.
As for `CCCC[C@@H]1NC(=O)[C@H](Cc2cccc(I)c2)NC(=O)CN(C)C(=O)[C@H](Cc2ccc(Cl)cc2)N(C)C(=O)CN(C)C(=O)CN(C)C(=O)[C@H]([C@@H](C)CC)NC(=O)[C@H](CC(C)C)N(C)C(=O)C[C@@H](C(=O)N2CCCC2)N(C)C(=O)[C@H](CCc2ccccc2)NC(=O)C(C)(C)N(C)C1=O` [Compound 1430] ([NMeL]I[Sar][Sar][NMePhe(4-Cl)][Sar][Phe(3-I)][Nle][NMeAib][hPhe][NMeD]-Pyrrolidide; lactam N-11), the IC50 was 0.4 µM.
With `C=CC[C@@H]1NC(=O)[C@H](Cc2cccc(I)c2)NC(=O)CN(C)C(=O)[C@H](Cc2ccc(Cl)cc2)N(C)C(=O)CN(C)C(=O)CN(C)C(=O)[C@H]([C@@H](C)CC)NC(=O)[C@H](CC(C)C)N(C)C(=O)C[C@@H](C(=O)N2CCCC2)N(C)C(=O)[C@H](CC(C)C)NC(=O)C(C)(C)N(C)C1=O` [Compound 1431] ([NMeL]I[Sar][Sar][NMePhe(4-Cl)][Sar][Phe(3-I)][AllylGly][NMeAib]L[NMeD]-Pyrrolidide; lactam N-11) the figure was 0.22 µM.

(Values after patent US12371454B2, “Cyclic peptide compound having Kras inhibitory action” (priority 2019, dated 2025).)
